# Assay results as given in patent US10526389B2, “Peptides and combinations of peptides for use in immunotherapy against lung cancer, including NSCLC and other cancers” (Immatics Biotechnologies GmbH, priority 2015, dated 2020).
# Legend:
# CD4+ T cells = assay: HLA class II T-cell proliferation assay (ProImmune, CFSE); type: cell-based, human; details: 5 μM peptide, 7 days
# Source text: The experiments as follows summarize the results of T-cell Proliferation Assays of selected MHC class II TUMAPs. Nine of 10 tested peptide antigens tested positive for immunogenicity. […] Individual peptide antigens stimulated the CD4+ T-cell proliferation in up to 6 donors. […] Thus, it can be concluded that the newly tested peptides also have a high potential to induce T-cell responses in vaccine trials.
# In order to characterize selected peptides for their potential especially as vaccine candidates, their in vitro immunogenicity was determined by analysis of T-cell proliferation using a commercial T-cell Proliferation Assay from the company ProImmune.
# Healthy donor CD8-depleted blood cells samples were tested with the selected peptides. The peptides that induce the proliferation of CD4+ T cells can potentially result in the development of a helper T-cell immune response, and therefore are considered to be immunogenic. The proliferation of CD4+ T cells was determined using carboxyfluorescein succinimidyl ester (CFSE) labelling. In proliferating cells, CFSE is distributed evenly to dividing cells. Thus, the proliferation can be measured as a decrease in CFSE fluorescence in the cells as analyzed.
# Peripheral blood mononuclear cell (PBMC) samples from healthy human donors were selected from the ProImmune cell bank based on HLA-DRB1 allele expression. CD8^+ T-cells were depleted from donor blood samples prior to use to avoid a false-positive response. The remaining CD4^+ T cells were labelled with CFSE and subsequently incubated with 5 μM of each selected peptide. Each peptide was tested in six replicated wells. The background was measured on each plate in six unstimulated control wells.
# After an incubation period of 7 days the cells were co-stained with anti-CD4 antibody and analyzed by flow cytometry. The degree of proliferation was determined by measuring a reduction in CFSE intensity.
# The evaluation of flow cytometric data was performed using FlowJo Software (Tree Star, Inc.). The results of flow cytometric analysis were expressed as the ratio of the CD4^+ dim population to the total CD4^+ population. The degree of proliferation was expressed as percentage of stimulation above background, i.e. proportion of antigen stimulated CD4^+ CFSE dim cells minus the proportion of CD4^+ CFSE dim cells from unstimulated control wells. For each sample, a mean and the corresponding standard error of the mean (SEM) of the six replicates were calculated.
# Donors were chosen by HLA-DRB1 allele expression. The other two HLA class II loci (DQ and DP) have not been included into the analysis. The interesting DRB1 alleles were selected according to the frequencies of predicted peptide binding based on […] algorithm (Rammensee et al., 1999). For HLA-DR, binding was defined by a […] binding prediction score equal or greater than 18. This threshold score for binding was defined based on the analysis of binding scores of known published promiscuous HLA-DR ligands (Table 24).
# All DRB1 alleles with binding frequency over 20% over all selected peptides were requested to be included into the donor panel) by ProImmune. 4 other rare DRB1 alleles (DRB1*10:01, DRB1*16:01, DRB1*08:01, and DRB1*13:03) were requested additionally.
# The antigen-stimulated proliferation of CD4^+ T cells was considered as an indicator of in vitro immunogenicity and was investigated in a commercially available T-cell Proliferation Assay from ProImmune. The degree of antigen-stimulated CD4^+ T-cell proliferation was expressed as a percentage of stimulation above background. A response over 0.02% stimulation above background with SEM=2 (i.e. values two standard errors greater than background) was considered to be positive.
# CD8+ T cells = assay: In vitro immunogenicity of HLA-A*24 peptides (CD8+ T-cell priming with aAPCs, multimer staining); type: cell-based, human
# Experimental: In order to obtain information regarding the immunogenicity of the TUMAPs of the present invention, the inventors performed investigations using an in vitro T-cell priming assay based on repeated stimulations of CD8+ T cells with artificial antigen presenting cells (aAPCs) loaded with peptide/MHC complexes and anti-CD28 antibody.
# Generation of pMHC/anti-CD28 coated beads, T-cell stimulations and readout was performed in a highly defined in vitro system using four different pMHC molecules per stimulation condition and 8 different pMHC molecules per readout condition.
# The purified co-stimulatory mouse IgG2a anti human CD28 Ab 9.3 (Jung et al., 1987) was chemically biotinylated using Sulfo-N-hydroxysuccinimidobiotin as recommended by the manufacturer (Perbio, Bonn, Germany). Beads used were 5.6 μm diameter streptavidin coated polystyrene particles (Bangs Laboratories, Illinois, USA).
# 800.000 beads/200 μl were coated in 96-well plates in the presence of 4×12.5 ng different biotin-pMHC, washed and 600 ng biotin anti-CD28 were added subsequently in a volume of 200 μl. Stimulations were initiated in 96-well plates by co-incubating 1×10^6 CD8+ T cells with 2×10^5 washed coated beads in 200 μl TCM supplemented with 5 ng/ml IL-12 (PromoCell) for 3 days at 37° C. Half of the medium was then exchanged by fresh TCM supplemented with 80 U/ml IL-2 and incubating was continued for 4 days at 37° C. This stimulation cycle was performed for a total of three times. For the pMHC multimer readout using 8 different pMHC molecules per condition, a two-dimensional combinatorial coding approach was used as previously described (Andersen et al., 2012) with minor modifications encompassing coupling to 5 different fluorochromes. Finally, multimeric analyses were performed by staining the cells with Live/dead near IR dye (Invitrogen, Karlsruhe, Germany), CD8-FITC antibody clone SK1 (BD, Heidelberg, Germany) and fluorescent pMHC multimers. For analysis, a BD LSRII SORP cytometer equipped with appropriate lasers and filters was used. Peptide specific cells were calculated as percentage of total CD8+ cells. Evaluation of multimeric analysis was done using the FlowJo software (Tree Star, Oregon, USA). In vitro priming of specific multimer+CD8+ lymphocytes was detected by comparing to negative control stimulations.
# Exemplary flow cytometry results after TUMAP-specific multimer staining for 3 peptides of the invention are shown in FIGS. 3A-3E together with corresponding negative controls.
substance,measurement,setting,value
"MMP-001: IMA910 class II peptide, positive control with known in vivo immunogenicity (SQDDIKGIQKLYGKRS; listed as Homo sapiens) [reference compound]",Number of positive donors,"CD4+ T cells; 21 donor samples, positive = over 0.02% stimulation above background",2
same,Strength of response: mean in % above the background,CD4+ T cells; CD4+ T-cell proliferation (CFSE),0.09%
COL12A1-003 (SYSIGIANF; listed as Homo sapiens),in vitro immunogenicity: donors,CD8+ T cells,++++ (>= 70% = ++++)
same,in vitro immunogenicity: wells,CD8+ T cells,+ (<20% = +)
SLC-003 (RYFPTQALNF; listed as Homo sapiens),in vitro immunogenicity: donors,CD8+ T cells,+ (<20% = +)
same,in vitro immunogenicity: wells,CD8+ T cells,+ (<20% = +)
ZBED5-001 (AYKDKDISFF; listed as Homo sapiens),in vitro immunogenicity: donors,CD8+ T cells,++++ (>= 70% = ++++)
same,in vitro immunogenicity: wells,CD8+ T cells,+ (<20% = +)
ABCA13-003 (EYLPEFLHTF; listed as Homo sapiens),in vitro immunogenicity: donors,CD8+ T cells,++ (20%-49% = ++)
same,in vitro immunogenicity: wells,CD8+ T cells,+ (<20% = +)
DDX5-007 (NYTNGSFGSNF; listed as Homo sapiens),in vitro immunogenicity: donors,CD8+ T cells,+ (<20% = +)
same,in vitro immunogenicity: wells,CD8+ T cells,+ (<20% = +)
KDM6B-001 (RYGGSFAEL; listed as Homo sapiens),in vitro immunogenicity: donors,CD8+ T cells,++ (20%-49% = ++)
same,in vitro immunogenicity: wells,CD8+ T cells,+ (<20% = +)
COLEC12-001 (IYAGQWNDF; listed as Homo sapiens),in vitro immunogenicity: donors,CD8+ T cells,+++ (50%-69% = +++)
same,in vitro immunogenicity: wells,CD8+ T cells,+ (<20% = +)
GLS-001 (DYIPQLAKF; listed as Homo sapiens),in vitro immunogenicity: donors,CD8+ T cells,++++ (>= 70% = ++++)
same,in vitro immunogenicity: wells,CD8+ T cells,+ (<20% = +)
LAPTM5-001 (SYMEVPTYLNF; listed as Homo sapiens),in vitro immunogenicity: donors,CD8+ T cells,++ (20%-49% = ++)
same,in vitro immunogenicity: wells,CD8+ T cells,+ (<20% = +)
OLFML2B-001 (YYGNTLVEF; listed as Homo sapiens),in vitro immunogenicity: donors,CD8+ T cells,++++ (>= 70% = ++++)
same,in vitro immunogenicity: wells,CD8+ T cells,++ (20%-49% = ++)
ZNF697-001 (TYLTNHLRL; listed as Homo sapiens),in vitro immunogenicity: donors,CD8+ T cells,++++ (>= 70% = ++++)
same,in vitro immunogenicity: wells,CD8+ T cells,++ (20%-49% = ++)
TUBGCP3-001 (FYQGIVQQF; listed as Homo sapiens),in vitro immunogenicity: donors,CD8+ T cells,++ (20%-49% = ++)
same,in vitro immunogenicity: wells,CD8+ T cells,+ (<20% = +)
ABCC1-001 (VYVTIDENNIL; listed as Homo sapiens),in vitro immunogenicity: donors,CD8+ T cells,++ (20%-49% = ++)
same,in vitro immunogenicity: wells,CD8+ T cells,+ (<20% = +)
VYTSWQIPQKF (listed as Homo sapiens) [SEQ ID No. 23],in vitro immunogenicity: donors,CD8+ T cells,+ (<20% = +)
same,in vitro immunogenicity: wells,CD8+ T cells,+ (<20% = +)
LYQILQGIVF (listed as Homo sapiens) [SEQ ID No. 161],in vitro immunogenicity: donors,CD8+ T cells,++++ (>= 70% = ++++)
same,in vitro immunogenicity: wells,CD8+ T cells,+ (<20% = +)
G2E-002 (LYINKANIW; listed as Homo sapiens),in vitro immunogenicity: donors,CD8+ T cells,++ (20%-49% = ++)
same,in vitro immunogenicity: wells,CD8+ T cells,+ (<20% = +)
TYNPEIYVI (listed as Homo sapiens) [SEQ ID No. 35],in vitro immunogenicity: donors,CD8+ T cells,++++ (>= 70% = ++++)
same,in vitro immunogenicity: wells,CD8+ T cells,++ (20%-49% = ++)
TRIM11-001 (IFLDYEAGHLSF; listed as Homo sapiens),in vitro immunogenicity: donors,CD8+ T cells,+ (<20% = +)
same,in vitro immunogenicity: wells,CD8+ T cells,+ (<20% = +)
MREG-001 (RYLFVVDRL; listed as Homo sapiens),in vitro immunogenicity: donors,CD8+ T cells,++++ (>= 70% = ++++)
same,in vitro immunogenicity: wells,CD8+ T cells,++++ (>= 70% = ++++)
AHD-001 (EYSDVLAKLAF; listed as Homo sapiens),in vitro immunogenicity: donors,CD8+ T cells,+++ (50%-69% = +++)
same,in vitro immunogenicity: wells,CD8+ T cells,+ (<20% = +)
XPR-001 (VYPLALYGF; listed as Homo sapiens),in vitro immunogenicity: donors,CD8+ T cells,++++ (>= 70% = ++++)
same,in vitro immunogenicity: wells,CD8+ T cells,++ (20%-49% = ++)
COL6A3-013 (EYQPEMLEKF; listed as Homo sapiens),in vitro immunogenicity: donors,CD8+ T cells,+ (<20% = +)
same,in vitro immunogenicity: wells,CD8+ T cells,+ (<20% = +)
FAM83A-001 (PFLQASPHF; listed as Homo sapiens),in vitro immunogenicity: donors,CD8+ T cells,++++ (>= 70% = ++++)
same,in vitro immunogenicity: wells,CD8+ T cells,++ (20%-49% = ++)
FKBP10-002 (TYIGQGYII; listed as Homo sapiens),in vitro immunogenicity: donors,CD8+ T cells,++++ (>= 70% = ++++)
same,in vitro immunogenicity: wells,CD8+ T cells,+ (<20% = +)
SP14-001 (AYPDLNEIYRSF; listed as Homo sapiens),in vitro immunogenicity: donors,CD8+ T cells,+ (<20% = +)
same,in vitro immunogenicity: wells,CD8+ T cells,+ (<20% = +)
NUP153-001 (VYFKPSLTPSGEF; listed as Homo sapiens),in vitro immunogenicity: donors,CD8+ T cells,+ (<20% = +)
same,in vitro immunogenicity: wells,CD8+ T cells,+ (<20% = +)
KFLEHTNFEF (listed as Homo sapiens) [SEQ ID No. 39],in vitro immunogenicity: donors,CD8+ T cells,++ (20%-49% = ++)
same,in vitro immunogenicity: wells,CD8+ T cells,+ (<20% = +)
RFMDGHITF (listed as Homo sapiens) [SEQ ID No. 25],in vitro immunogenicity: donors,CD8+ T cells,++ (20%-49% = ++)
same,in vitro immunogenicity: wells,CD8+ T cells,+ (<20% = +)
MUC16-001 (TYSEKTTLF; listed as Homo sapiens),in vitro immunogenicity: donors,CD8+ T cells,++ (20%-49% = ++)
same,in vitro immunogenicity: wells,CD8+ T cells,+ (<20% = +)
RBPJ-001 (RYLHVEGGNF; listed as Homo sapiens),in vitro immunogenicity: donors,CD8+ T cells,++ (20%-49% = ++)
same,in vitro immunogenicity: wells,CD8+ T cells,+ (<20% = +)
OLFML2B-002 (YYYGNTLVEF; listed as Homo sapiens),in vitro immunogenicity: donors,CD8+ T cells,++ (20%-49% = ++)
same,in vitro immunogenicity: wells,CD8+ T cells,+ (<20% = +)
